Source: PMC8211987, “Primaquine Diphosphate, a Known Antimalarial Drug, Blocks Vascular Leakage Acting Through Junction Stabilization” (Frontiers in Pharmacology, 2021)

Biological target: T1, ubiquitin specific protease 1 (USP1) (Homo sapiens, UniProt O94782)
T1 construct: recombinant USP1/UAF1 complex; with UAF1
Test: Ub-AMC deubiquitinase activity assay with purified recombinant USP1/UAF1
Format: biochemical

T1 sequence (O94782 whole entry): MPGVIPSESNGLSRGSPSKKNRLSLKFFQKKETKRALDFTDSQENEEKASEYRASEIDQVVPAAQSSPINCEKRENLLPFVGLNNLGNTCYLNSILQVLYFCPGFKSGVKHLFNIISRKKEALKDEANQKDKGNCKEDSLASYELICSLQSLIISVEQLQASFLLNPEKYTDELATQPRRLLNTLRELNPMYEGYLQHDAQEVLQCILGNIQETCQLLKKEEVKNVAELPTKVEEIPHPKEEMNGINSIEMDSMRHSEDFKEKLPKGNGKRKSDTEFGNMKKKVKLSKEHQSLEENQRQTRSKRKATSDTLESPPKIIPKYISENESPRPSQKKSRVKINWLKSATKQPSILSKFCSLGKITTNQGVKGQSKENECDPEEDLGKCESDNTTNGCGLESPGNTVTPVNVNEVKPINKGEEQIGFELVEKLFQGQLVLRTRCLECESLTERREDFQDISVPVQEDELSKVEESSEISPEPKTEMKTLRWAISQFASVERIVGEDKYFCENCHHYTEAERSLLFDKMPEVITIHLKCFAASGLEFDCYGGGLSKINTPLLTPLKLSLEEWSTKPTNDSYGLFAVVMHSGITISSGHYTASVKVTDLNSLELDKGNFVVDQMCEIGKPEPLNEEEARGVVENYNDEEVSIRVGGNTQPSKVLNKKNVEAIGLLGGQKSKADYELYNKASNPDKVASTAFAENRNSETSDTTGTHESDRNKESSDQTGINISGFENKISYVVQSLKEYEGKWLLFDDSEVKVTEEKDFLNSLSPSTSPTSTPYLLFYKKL
T1 sequence (Q8TAF3 whole entry partner): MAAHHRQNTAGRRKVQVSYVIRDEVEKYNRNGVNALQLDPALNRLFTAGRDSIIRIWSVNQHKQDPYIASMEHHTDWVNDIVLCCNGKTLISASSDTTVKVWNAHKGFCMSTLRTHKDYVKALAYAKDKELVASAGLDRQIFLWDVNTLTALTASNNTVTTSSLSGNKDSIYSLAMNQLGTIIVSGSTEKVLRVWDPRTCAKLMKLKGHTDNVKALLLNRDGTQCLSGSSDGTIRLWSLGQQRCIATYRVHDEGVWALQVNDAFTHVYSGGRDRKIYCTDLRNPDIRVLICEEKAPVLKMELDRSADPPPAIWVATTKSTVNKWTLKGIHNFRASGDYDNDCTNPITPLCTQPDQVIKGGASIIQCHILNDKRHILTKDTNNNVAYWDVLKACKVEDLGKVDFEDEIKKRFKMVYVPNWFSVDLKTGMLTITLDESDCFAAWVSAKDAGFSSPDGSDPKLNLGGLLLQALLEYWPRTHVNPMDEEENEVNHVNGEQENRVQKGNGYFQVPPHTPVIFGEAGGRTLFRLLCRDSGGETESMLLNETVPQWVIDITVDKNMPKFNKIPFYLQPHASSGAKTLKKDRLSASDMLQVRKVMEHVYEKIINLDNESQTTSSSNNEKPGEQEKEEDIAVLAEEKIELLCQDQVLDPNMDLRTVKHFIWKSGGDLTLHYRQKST

## COc1cc(NC(C)CCCN)c2ncccc2c1 (stereo not shown) [PD, Primaquine diphosphate]
  IC50: 25.4 µM
